# In PMC7438494 (Communications Biology, 2020):
# Read-outs that look alike come from different tables or passages of the source.
# Molecular target: human ATP synthase (Homo sapiens, UniProt P00846+P05496)
# Experiment: biochemical
# Type: biochemical
# Settings: Human Mito
# [1] = 3rd exp (12-20-18), BDQ in DMSO, Bedaquiline 0.05 μM, 60 min
# [2] = 4th exp (12-12-28), repeated point, Bedaquiline 5e-6 μM, 60 min
# [3] = 4th exp (12-12-28), repeated point, Bedaquiline 5e-5 μM, 60 min
structure (smiles),measurement,setting,value
"COc1nc2ccc(Br)cc2cc1[C@@H](c1ccccc1)[C@@](O)(CCN(C)C)c1cccc2ccccc12 [BDQ, Bedaquiline]",Cyanide sensitive,"2nd exp (12-17-18), Bedaquiline 0.2 μM, 60 min",5.1889 nmol/min/mg
same,activity at 0.2 µM,"2nd exp (12-17-18), Bedaquiline 0.2 μM, 60 min, read-out: % activity",59.9%
same,Cyanide sensitive,"2nd exp (12-17-18), Bedaquiline 0.5 μM, 60 min",5.024 nmol/min/mg
same,activity at 0.5 µM,"2nd exp (12-17-18), Bedaquiline 0.5 μM, 60 min, read-out: % activity",58%
same,Cyanide sensitive,"2nd exp (12-17-18), Bedaquiline 0.65 μM, 60 min",2.666 nmol/min/mg
same,activity at 0.65 µM,"2nd exp (12-17-18), Bedaquiline 0.65 μM, 60 min, read-out: % activity",30.8%
same,Cyanide sensitive,"2nd exp (12-17-18), Bedaquiline 0.85 μM, 60 min",2.868 nmol/min/mg
same,activity at 0.85 µM,"2nd exp (12-17-18), Bedaquiline 0.85 μM, 60 min, read-out: % activity",33.1%
same,Cyanide sensitive,"2nd exp (12-17-18), Bedaquiline 2 μM, 60 min",0.0982 nmol/min/mg
same,activity at 2 µM,"2nd exp (12-17-18), Bedaquiline 2 μM, 60 min, read-out: % activity",1.13%
same,Cyanide sensitive,"2nd exp (12-17-18), Bedaquiline 5 μM, 60 min",-0.8746 nmol/min/mg
same,activity at 5 µM,"2nd exp (12-17-18), Bedaquiline 5 μM, 60 min, read-out: % activity",-10.1%
same,activity at 0.005 µM,"2 nd exp (18_12_17), BDQ 0.005 uM, read-out: Cyanide sensitive % activity",43.8%
same,activity at 0.1 µM,"2 nd exp (18_12_17), BDQ 0.1 uM, read-out: Cyanide sensitive % activity",62%
same,activity at 0.2 µM,"2 nd exp (18_12_17), BDQ 0.2 uM, read-out: Cyanide sensitive % activity",59.9%
same,activity at 0.5 µM,"2 nd exp (18_12_17), BDQ 0.5 uM, read-out: Cyanide sensitive % activity",58%
same,activity at 0.65 µM,"2 nd exp (18_12_17), BDQ 0.65 uM, read-out: Cyanide sensitive % activity",30.8%
same,activity at 0.85 µM,"2 nd exp (18_12_17), BDQ 0.85 uM, read-out: Cyanide sensitive % activity",33.1%
same,activity at 2 µM,"2 nd exp (18_12_17), BDQ 2 uM, read-out: Cyanide sensitive % activity",1.13%
same,Cyanide sensitive,"3rd exp (12-20-18), BDQ in DMSO, Bedaquiline 0.0005 μM, 60 min",7.6746 nmol/min/mg
same,activity at 0.0005 µM,"3rd exp (12-20-18), BDQ in DMSO, Bedaquiline 0.0005 μM, 60 min, read-out: % activity",81.5%
same,Cyanide sensitive,"3rd exp (12-20-18), BDQ in DMSO, Bedaquiline 0.005 μM, 60 min",8.333 nmol/min/mg
same,activity at 0.005 µM,"3rd exp (12-20-18), BDQ in DMSO, Bedaquiline 0.005 μM, 60 min, read-out: % activity",88.5%
same,Cyanide sensitive,[1],6.758 nmol/min/mg
same,activity at 0.05 µM,[1],71.8%
same,Cyanide sensitive,"3rd exp (12-20-18), BDQ in DMSO, Bedaquiline 0.1 μM, 60 min",8.103 nmol/min/mg
same,activity at 0.1 µM,"3rd exp (12-20-18), BDQ in DMSO, Bedaquiline 0.1 μM, 60 min, read-out: % activity",86%
same,Cyanide sensitive,"3rd exp (12-20-18), BDQ in DMSO, Bedaquiline 0.2 μM, 60 min",5.599 nmol/min/mg
same,activity at 0.2 µM,"3rd exp (12-20-18), BDQ in DMSO, Bedaquiline 0.2 μM, 60 min, read-out: % activity",59.5%
same,Cyanide sensitive,"3rd exp (12-20-18), BDQ in DMSO, Bedaquiline 0.5 μM, 60 min",3.146 nmol/min/mg
same,activity at 0.5 µM,"3rd exp (12-20-18), BDQ in DMSO, Bedaquiline 0.5 μM, 60 min, read-out: % activity",33.4%
same,Cyanide sensitive,"3rd exp (12-20-18), BDQ in DMSO, Bedaquiline 0.65 μM, 60 min",3.762 nmol/min/mg
same,activity at 0.65 µM,"3rd exp (12-20-18), BDQ in DMSO, Bedaquiline 0.65 μM, 60 min, read-out: % activity",40%
same,Cyanide sensitive,"3rd exp (12-20-18), BDQ in DMSO, Bedaquiline 0.85 μM, 60 min",3.062 nmol/min/mg
same,activity at 0.85 µM,"3rd exp (12-20-18), BDQ in DMSO, Bedaquiline 0.85 μM, 60 min, read-out: % activity",32.5%
same,Cyanide sensitive,"3rd exp (12-20-18), BDQ in DMSO, Bedaquiline 1 μM, 60 min",-0.07798 nmol/min/mg
same,activity at 1 µM,"3rd exp (12-20-18), BDQ in DMSO, Bedaquiline 1 μM, 60 min, read-out: % activity",-0.828%
same,Cyanide sensitive,"3rd exp (12-20-18), BDQ in DMSO, Bedaquiline 2 μM, 60 min",0.1555 nmol/min/mg
same,activity at 2 µM,"3rd exp (12-20-18), BDQ in DMSO, Bedaquiline 2 μM, 60 min, read-out: % activity",1.65%
same,Cyanide sensitive,"3rd exp (12-20-18), BDQ in DMSO, Bedaquiline 5 μM, 60 min",-0.3777 nmol/min/mg
same,activity at 5 µM,"3rd exp (12-20-18), BDQ in DMSO, Bedaquiline 5 μM, 60 min, read-out: % activity",-4.01%
same,activity at 0.0005 µM,"3rd exp (18_12_20), BDQ 0.0005 uM, read-out: Cyanide sensitive % activity",81.5%
same,activity at 0.005 µM,"3rd exp (18_12_20), BDQ 0.005 uM, read-out: Cyanide sensitive % activity",88.5%
same,activity at 0.2 µM,"3rd exp (18_12_20), BDQ 0.2 uM, read-out: Cyanide sensitive % activity",59.5%
same,activity at 0.5 µM,"3rd exp (18_12_20), BDQ 0.5 uM, read-out: Cyanide sensitive % activity",33.4%
same,activity at 0.65 µM,"3rd exp (18_12_20), BDQ 0.65 uM, read-out: Cyanide sensitive % activity",40%
same,activity at 0.85 µM,"3rd exp (18_12_20), BDQ 0.85 uM, read-out: Cyanide sensitive % activity",32.5%
same,activity at 1 µM,"3rd exp (18_12_20), BDQ 1 uM, read-out: Cyanide sensitive % activity",-0.84%
same,activity at 2 µM,"3rd exp (18_12_20), BDQ 2 uM, read-out: Cyanide sensitive % activity",1.68%
same,activity at 5 µM,"3rd exp (18_12_20), BDQ 5 uM, read-out: Cyanide sensitive % activity",-4.13%
same,Cyanide sensitive,"4th exp (12-12-28), BDQ in DMSO, Bedaquiline 5e-6 μM, 60 min",6.055 nmol/min/mg
same,Cyanide sensitive,"4th exp (12-12-28), BDQ in DMSO, Bedaquiline 5e-5 μM, 60 min",5.641 nmol/min/mg
same,Cyanide sensitive,"4th exp (12-12-28), BDQ in DMSO, Bedaquiline 0.0005 μM, 60 min",4.664 nmol/min/mg
same,activity at 0.0005 µM,"4th exp (12-12-28), BDQ in DMSO, Bedaquiline 0.0005 μM, 60 min, read-out: % activity",52.7%
same,Cyanide sensitive,"4th exp (12-12-28), BDQ in DMSO, Bedaquiline 0.005 μM, 60 min",4.551 nmol/min/mg
same,activity at 0.005 µM,"4th exp (12-12-28), BDQ in DMSO, Bedaquiline 0.005 μM, 60 min, read-out: % activity",51.4%
same,Cyanide sensitive,"4th exp (12-12-28), BDQ in DMSO, Bedaquiline 0.1 μM, 60 min",6.3 nmol/min/mg
same,activity at 0.1 µM,"4th exp (12-12-28), BDQ in DMSO, Bedaquiline 0.1 μM, 60 min, read-out: % activity",71.2%
same,Cyanide sensitive,"4th exp (12-12-28), BDQ in DMSO, Bedaquiline 0.2 μM, 60 min",4.408 nmol/min/mg
same,activity at 0.2 µM,"4th exp (12-12-28), BDQ in DMSO, Bedaquiline 0.2 μM, 60 min, read-out: % activity",49.8%
same,Cyanide sensitive,"4th exp (12-12-28), BDQ in DMSO, Bedaquiline 0.5 μM, 60 min",4.526 nmol/min/mg
same,activity at 0.5 µM,"4th exp (12-12-28), BDQ in DMSO, Bedaquiline 0.5 μM, 60 min, read-out: % activity",51.2%
same,Cyanide sensitive,"4th exp (12-12-28), BDQ in DMSO, Bedaquiline 0.65 μM, 60 min",3.3225 nmol/min/mg
same,activity at 0.65 µM,"4th exp (12-12-28), BDQ in DMSO, Bedaquiline 0.65 μM, 60 min, read-out: % activity",37.6%
same,Cyanide sensitive,"4th exp (12-12-28), BDQ in DMSO, Bedaquiline 1 μM, 60 min",0.7592 nmol/min/mg
same,activity at 1 µM,"4th exp (12-12-28), BDQ in DMSO, Bedaquiline 1 μM, 60 min, read-out: % activity",8.58%
same,Cyanide sensitive,"4th exp (12-12-28), BDQ in DMSO, Bedaquiline 2 μM, 60 min",0.2448 nmol/min/mg
same,activity at 2 µM,"4th exp (12-12-28), BDQ in DMSO, Bedaquiline 2 μM, 60 min, read-out: % activity",2.77%
same,Cyanide sensitive,"4th exp (12-12-28), BDQ in DMSO, Bedaquiline 5 μM, 60 min",-0.2191 nmol/min/mg
same,activity at 5 µM,"4th exp (12-12-28), BDQ in DMSO, Bedaquiline 5 μM, 60 min, read-out: % activity",-2.48%
same,Cyanide sensitive,"4th exp (12-12-28), BDQ in DMSO, Bedaquiline 10 μM, 60 min",-0.1822 nmol/min/mg
same,activity at 10 µM,"4th exp (12-12-28), BDQ in DMSO, Bedaquiline 10 μM, 60 min, read-out: % activity",-2.06%
same,Repeted points,[2],6.965 nmol/min/mg
same,Repeted points % activity,[2],78.7332%
same,Repeted points,[3],6.5997 nmol/min/mg
same,Repeted points % activity,[3],74.6041%
same,Repeted points,"4th exp (12-12-28), repeated point, Bedaquiline 1 μM, 60 min",0.7668 nmol/min/mg
same,activity at 1 µM,"4th exp (12-12-28), repeated point, Bedaquiline 1 μM, 60 min, read-out: Repeted points % activity",8.67%
same,activity at 10 µM,"4th exp (18_12_26) duplicate, BDQ 10 uM, read-out: Cyanide sensitive % activity",-2.1%
same,activity at 0.1 µM,"4th exp (18_12_26), BDQ 0.1 uM, read-out: Cyanide sensitive % activity",71.2%
same,activity at 0.2 µM,"4th exp (18_12_26), BDQ 0.2 uM, read-out: Cyanide sensitive % activity",49.8%
same,activity at 0.5 µM,"4th exp (18_12_26), BDQ 0.5 uM, read-out: Cyanide sensitive % activity",51.2%
same,activity at 0.65 µM,"4th exp (18_12_26), BDQ 0.65 uM, read-out: Cyanide sensitive % activity",37.6%
